Experimental findings from US11249070B2, “Anti-cancer drug assessment method” (TOPPAN PRINTING CO., LTD., priority 2016, dated 2022) are described below.

The test system of assay [1] is HT29. To be noted: bevacizumab 2 μg per well in the combination, 72 hours.
Source text: (§2) The cell structures containing cancer cells and having a vascular network structure used herein were the cell structures produced in Example 5, and the cell culture container, culture media, and bevacizumab used herein were also the same as those used in Example 5.
(§3) After the cell structures were each dispersed in the same manner as in Example 2, and the obtained dispersions were stained with trypan blue, the number of viable cancer cells was counted to calculate CNT (%).
Assay [2] has as its system HT29. To be noted: oxaliplatin 100 μg/mL, bevacizumab 2 μg per well in combined use, 72 hours.
Source text: (§4) Furthermore, HT29 cells were used as the cancer cells.
(§5) After the cell structures were each dispersed in the same manner as in Example 2, and the obtained dispersions were stained with trypan blue, the number of viable cancer cells was counted to calculate CNT (%). Measurements were repeated three times for each culture condition.
Assay [3] has as its system HT29. Conditions: oxaliplatin 100 μg/mL, bevacizumab 2 μg per well in combined use.
Procedure: as §4
Cell structures were produced in the same manner as in Example 5, except that HT29 cells were seeded in a Transwell cell culture insert in which a structure formed from NHDF and HUVEC was formed, centrifugation was performed to remove the liquid component, and the culture time in the CO2 incubator (37° C., 5% CO2) was changed to 24, 48, 72, or 96 hours.
as §5
In another assay the test system is HCT116. Conditions: bevacizumab 2 μg per well in the combination, 72 hours.
Assay [4] has as its system gastric cancer cell line NCI-N87. In words: CNT with oxaliplatin, 2D vs 3D (Example 13). The format is cell-based, human. Conditions: for CNT (%): 72 hours, measured once. The protocol: (§1) Measurements were performed once for each culture condition.
Assay [5] deals with lung cancer cell line NCI-H820. Nature of the assay: CNT with oxaliplatin, 2D vs 3D (Example 12). Conditions: for CNT (%): 72 hours, measured once. The format is cell-based, human. The protocol:
as §1

Assay [6] relates to HT29. In words: CNT with cetuximab and/or bevacizumab, 2D, spheroid, 3D (Example 4). The format is cell-based, human. Conditions: for CNT (%) Average value / CNT (%) Median value: cetuximab 1 mg/mL and/or bevacizumab 2 μg per well, 72 hours. An excerpt: Moreover, for comparison, in place of the above cell structures, structures were produced by culturing cancer cells so as to form a single layer in a general culture container (2D method), and spheroids were produced by spheroid culture of a mixture of 2×10^6 NHDF, 3×10^4 HUVEC, and 2×10^4 HT29 (spheroid method).

Assay [7] has as its system HT29. In words: CNT with doxorubicin, vascular network in layer shape vs scattered (Example 3). The class given is cell-based, human. Conditions: doxorubicin 10 μM, 72 hours.
Assay [8] has as its system breast cancer cell line MCF-7. In words: CNT with doxorubicin, 2D vs 3D (Example 14). The class given is cell-based, human. Conditions: for CNT (%) Average value: 72 hours. An excerpt:
The general cytotoxic anti-cancer drug to be assessed was doxorubicin (product number: 046-21523, produced by Wako Pure Chemical Industries, Ltd.).

The test system of assay [9] is HT29. In words: CNT with doxorubicin, cell structures with or without semipermeable membrane (Example 9). The format is cell-based, human. To be noted: doxorubicin 10 μM, 72 hours. The source says: The cell structures containing a cell layer containing cancer cells and a cell layer having a vascular network structure used herein were cell structures containing a cell layer in which two types of cells, i.e., NHDF and HUVEC, constituted a multilayer, and a cancer cell layer formed from HT29.
Separately, 2×10^4 HT29 was suspended in a suitable amount of culture medium to prepare a cancer cell suspension (step (a)). The HT29 used was previously fluorescently labeled (product number: PKH67GL, produced by SIGMA).
A cell structure 2 was obtained in the same manner as in the cell structure 1, except that a semipermeable membrane with a pore size of 0.4 μm was placed on a structure containing stromal cells, and a cancer cell suspension was seeded on the semipermeable membrane to form a cancer cell layer. […] In the cell structure 2, the cells constituting the cancer cell layer were completely separated from the cells constituting the stromal cell layer.
A cell structure 3 was obtained in the same manner as in the cell structure 1, except that a cancer cell suspension was first seeded in a Transwell cell culture insert to form a cancer cell layer, a semipermeable membrane with a pore size of 0.4 μm was placed on the cancer cell layer, and a stromal cell suspension was then seeded on the semipermeable membrane to form a stromal cell layer. […] In the cell structure 3, the cells constituting the cancer cell layer were completely separated from the cells constituting the stromal cell layer.
A cell structure 4 was obtained in the same manner as in the cell structure 2, except that a semipermeable membrane with a pore size of 8 μm was used. […] In the cell structure 4, the cells constituting the cancer cell layer and the cells constituting the stromal cell layer extended to be in contact with each other in the penetration part of the semipermeable membrane.
A cell structure 5 was obtained in the same manner as in the cell structure 3, except that a semipermeable membrane with a pore size of 8 μm was used. […] In the cell structure 5, the cells constituting the cancer cell layer and the cells constituting the stromal cell layer extended to be in contact with each other in the penetration part of the semipermeable membrane.

The subject of assay [10] is human colon cancer cell line HT29. Nature of the assay: CNT (remaining viable cell rate) with doxorubicin, 2D cultures vs 3D cell structures (Example 2). The format is cell-based. To be noted: doxorubicin 10 μM; for CNT (%) Average value: 72 hours. An excerpt: The anti-cancer drug to be assessed was doxorubicin (product number: 046-21523, produced by Wako Pure Chemical Industries, Ltd.).
After termination of the culture, cell structures in which a cancer cell layer was laminated on a layer having a vascular network structure were obtained.
Moreover, for comparison, in place of the above cell structures, structures were constructed by culturing cancer cells so as to form a single layer in a general culture container (2D method), and the resulting 2D cultures were similarly cultured in the presence of doxorubicin. A vascular network was not formed in the obtained 2D cultures even when cancer cells and vascular endothelial cells were made to coexist.
Next, a suitable amount of tris buffer solution (50 mM, pH: 7.4) was added to the Transwell cell culture insert, and the liquid component was then removed. This series of processes was repeated 3 times. […] Thereafter, all of the solution was collected, and transferred to a 1.5-mL collection tube to which 300 μL of 0.25% trypsin-EDTA solution (produced by Invitrogen) had been previously added. […] Thereafter, all of the solution was collected, and transferred to a 1.5-mL collection tube.

[11] abbreviates: Spheroid, oxaliplatin 100 μg/mL.
Where [12] appears, read: regardless of the oxaliplatin concentration.

Read-outs that look alike come from different tables or passages of the source.

Source text for HCT116: as §2, §3

As to `O=C1[O][Pt]2([NH][C@@H]3CCCC[C@H]3[NH]2)[O]C1=O` [Oxaliplatin, oxaliplatin], the “CNT (%) Average value” with HT29 [1] (2D, oxaliplatin 10 μg/mL) turned out to be 39.4%; in the assay with HT29 [1] (2D, oxaliplatin 100 μg/mL), 16.0%; with HT29 [1] (3D, oxaliplatin 10 μg/mL) it was 63.6%; in the assay on HT29 [1] (3D, oxaliplatin 100 μg/mL) it was 31.9%; in the assay with HT29 [1] (Spheroid, oxaliplatin 10 μg/mL) it was 48.2%; in the assay with HT29 [1] (setting [11]), 22.3%. Also, the “CNT (%) Average value” was found to be 30.3% in the assay with HT29 [2] (HUVEC content 0.05 %, vascular network not formed); 33.4% with HT29 [2] (HUVEC content 0.25 %, vascular network formed); 35.7% in the assay on HT29 [2] (HUVEC content 0.5 %, vascular network formed); 33.8% with HT29 [2] (HUVEC content 1.5 %, vascular network formed); 36.0% with HT29 [3] (culture time 24 h after lamination of cancer cell layer, 72 hours); 36.3% in the assay with HT29 [3] (culture time 48 h after lamination of cancer cell layer, 72 hours). In addition, the “CNT (%) Average value” in the assay with HT29 [3] (culture time 72 h after lamination of cancer cell layer) is given as 37.0%; in the assay on HT29 [3] (culture time 96 h after lamination of cancer cell layer, 72 hours), 33.8%; in the assay on HCT116 (2D, oxaliplatin 10 μg/mL), 23.8%; in the assay with HCT116 (2D, oxaliplatin 100 μg/mL), 11.3%; in the assay on HCT116 (3D, oxaliplatin 10 μg/mL) it was 54.1%; in the assay on HCT116 (3D, oxaliplatin 100 μg/mL) it was 35.6%. Besides, the “CNT (%) Average value” in the assay on HCT116 (Spheroid, oxaliplatin 10 μg/mL) was 51.8%; in the assay on HCT116 (setting [11]) it was 18.8%. The “CNT (%)” value in assay [4] (2D, oxaliplatin 10 μg/mL) is recorded as 22.0%; in assay [4] (2D, oxaliplatin 100 μg/mL), 10.3%; in [4] (3D, oxaliplatin 10 μg/mL) it was 45.9%; in [4] (3D, oxaliplatin 100 μg/mL), 17.7%; in assay [5] (2D, oxaliplatin 1 μg/mL), 62.9%; in assay [5] (2D, oxaliplatin 10 μg/mL), 21.0%. Also, the “CNT (%)” value in [5] (3D, oxaliplatin 1 μg/mL) was 78.2%; in [5] (3D, oxaliplatin 10 μg/mL), 66.7%. In addition, the “drug sensitivity, cell structures compared with 2D cultures” value in [4] (setting [12]) and in assay [5] (setting [12]) was “drug sensitivity was lower” throughout.

On to bevacizumab, for which the CNT entry is recorded as “about 100%” in the assay with HT29 [6] (2D cultures and spheroids); “about 100%” in the assay with HT29 [6] (cell structures of the present Example, 3D). Also, the results for the “CNT (%) Average value” in the assay on HT29 [6] (2D), with HT29 [6] (3D) and in the assay with HT29 [6] (Spheroid) were 93.9%, 105.2% and 108.6%, respectively. Besides, the “CNT (%) Median value” with HT29 [6] (2D) came to 99.3%; with HT29 [6] (3D), 112.7%; in the assay with HT29 [6] (Spheroid), 113.8%.

Turning to `COc1cccc2c1C(=O)c1c(O)c3c(c(O)c1C2=O)C[C@@](O)(C(=O)CO)C[C@@H]3O[C@H]1C[C@H](N)[C@H](O)[C@H](C)O1` [Doxorubicin, doxorubicin], the “CNT (%) Average value” with HT29 [7] (cell structure in which a vascular network structure is formed in a layer shape) worked out at 31.22%; with HT29 [7] (cell structure in which a vascular network structure is scattered in the entire structure), 31.06%; in assay [8] (2D, Doxorubicin 1 μM), 38.9%; in assay [8] (2D, Doxorubicin 10 μM), 12.1%; in assay [8] (3D, Doxorubicin 1 μM) it was 78.4%; in assay [8] (3D, Doxorubicin 10 μM), 48.9%. Also, the “CNT (%) Average value” stood at 31.22% in the assay on HT29 [9] (Cell structure 1 (stromal cell layer - cancer cell layer)); 30.83% with HT29 [9] (Cell structure 2 (stromal cell layer - semipermeable membrane (0.4 μm) - cancer cell layer)); 32.68% in the assay on HT29 [9] (Cell structure 3 (cancer cell layer - semipermeable membrane (0.4 μm) - stromal cell layer)); 31.47% with HT29 [9] (Cell structure 4 (stromal cell layer - semipermeable membrane (8 μm) - cancer cell layer)); 33.03% in the assay with HT29 [9] (Cell structure 5 (cancer cell layer - semipermeable membrane (8 μm) - stromal cell layer)); 6.87% in assay [10] (2D, HT29 2 × 10^4 only). In addition, the “CNT (%) Average value” in assay [10] (2D, HUVEC 2 × 10^4 + HT29 2 × 10^4) turned out to be 21.40%; in assay [10] (2D, NHDF 2 × 10^4 + HT29 2 × 10^4) it was 13.20%; in [10] (3D, NHDF 1 × 10^6 + HUVEC 3 × 10^4 + HT29 2 × 10^4), 28.22%; in assay [10] (3D, NHDF 2 × 10^6 + HT29 2 × 10^4, no vascular network) it was 29.77%; in assay [10] (3D, NHDF 2 × 10^6 + HUVEC 3 × 10^4 + HT29 2 × 10^4), 31.22%. The “drug sensitivity, cell structures compared with 2D cultures” value in [8] (regardless of the doxorubicin concentration) was “drug sensitivity was lower”. Also, the “effectiveness in 2D culture co-cultured with fibroblasts relative to 2D culture co-cultured with vascular endothelial cells” value in [10] (2D) was “about two”. The “CNT of the cell structures relative to 2D culture” value in assay [10] (3D cell structures vs 2D culture of only cancer cells and 2D culture of cancer cells and fibroblasts) was “at least 5 times”.
